# Test system: HCT-116 colon cancer cell line
# Experiment: MTT cell proliferation assay on HCT-116 cells
# Format: cell-based
# Experimental: For cell culture experiments various cancer cell lines, HCT-116 colon cancer, U87-MG glial tumor, MCF7 breast cancer cell lines were used. Cells were seeded with high glucose DMEM medium (Biosera) supplemented with 10% FBS (Gibco) and 1× penicillin/streptomycin (Multicell). Twenty-four hours prior to molecule treatment, 10,000 cells were seeded into each well of 24-well cell culture plates. Molecules were used by preparing 4 mM stock solution in DMSO (Amresco). For molecule treatment, molecule stock solutions were diluted in DMEM with 10% FBS and added onto cells in each corresponding well. Final concentration of vehicle DMSO was 2% at maximum. Therefore, the vehicle group in experiments only included maximum of 2% DMSO concentration. We calculated the number of cells to be seeded to make sure that none of the cells reaches more than 60% confluency during the treatment period, as higher plate confluency levels would slow down cell proliferation independently from the molecule treatment.
# Values of half-maximal inhibitory concentration were (IC50) determined by MTT cell proliferation assays. Different concentrations of molecules ranging between 10^-9 to 10^-4 M were tested on HCT-116 cell lines with single treatment. 570 nm absorbance values were recorded and IC50 values were calculated by dose response-inhibition curves and nonlinear regression analysis on GraphPad Prism 8 software. For cell proliferation assays we performed five days experiments and repeated experiments at least three times with all cell lines. […] Therefore, three days results were presented. MTT analysis were performed on 24-well plates with initially 1×10^4 cells/well, grown overnight, and then treated with the selected molecules with different concentrations for at least 3 days. Following the initial incubation day, molecules were added and after incubation with MTT at 37° C. for 4 hours, formazan was solubilized with DMSO (Sigma-Aldrich, St. Louis, USA) and absorbance was measured at 570 nm. […] The IC50 value of compound of formula I was determined to be 22 μm (FIG. 1).
structure (smiles),measurement,setting,value
O=C(CSc1nc2ccc(N3C(=O)c4ccccc4C3=O)cc2s1)c1ccc(-c2ccccc2)cc1 [compound of formula I],cell morphology of treated HCT-116 cells,HCT-116 cells treated with compound versus vehicle group,apoptotic cell structures
same,proliferation of HCT-116 cells versus vehicle group (FIG. 1),"HCT-116 cells, MTT, cell viability over time, vehicle max 2% DMSO",reduced proliferation
same,IC50,"Homo sapiens, 72 h, HCT-116 cells, single treatment, 10^-9 to 10^-4 M, 570 nm absorbance, three days results, read-out: IC50 (half-maximal inhibitory concentration), MTT cell proliferation assay",22 µM

# From patent publication US12398128B2, “Physics-driven discovery of novel small therapeutic compounds for use as a BCL-2 inhibitor” (BAHCESEHIR UNIVERSITESI, priority 2021, dated 2025)
